Measured values as given in US20060069132A1, “Azolecarboxamide herbicides” (priority 2004, published 2006).

Legend:
giant foxtail = test: Test B pre-/postemergence herbicide test; format: in vivo, Setaria faberi; details: for Foxtail, Giant plant response rating (0 to 100 scale) / Plant response rating, Foxtail, Giant: 0 = no effect, 100 = complete control, preemergence; for Foxtail, Giant plant response rating: postemergence
Procedure, shortened: (§1)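 Plants compared with untreated controls 13–15 days post-treatment and given a visual 0–100 injury score. Applications: preemergence to seeds; postemergence at 1- to 4-leaf (2–18 cm); paddy species flooded, 2-leaf stage. Vehicle non-phytotoxic, surfactant included.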

velvetleaf = test: Test B pre-/postemergence herbicide test; format: in vivo, Abutilon theophrasti; details: for Velvetleaf plant response rating (0 to 100 scale) / Plant response rating, Velvetleaf: 0 = no effect, 100 = complete control, preemergence; for Velvetleaf plant response rating: postemergence
Procedure, shortened: as §1

Surinam grass = test: Test B pre-/postemergence herbicide test; format: in vivo, Urochloa decumbens; details: for Surinam Grass plant response rating (0 to 100 scale) / Plant response rating, Surinam Grass: 0 = no effect, 100 = complete control, preemergence; for Surinam Grass plant response rating: postemergence
Procedure, shortened: as §1

rice [1] = test: Test B pre-/postemergence herbicide test; format: in vivo, Oryza sativa; details: 0 = no effect, 100 = complete control, preemergence; for Rice plant response rating (0 to 100 scale): 125 g ai/ha; for Plant response rating, Rice: 500 g ai/ha, visual rating
Procedure, shortened: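 Greenhouse pot assay with simultaneous preemergence (treated seed) and postemergence (2–18 cm seedlings) applications of surfactant-containing, non-phytotoxic solvent formulations. Response scored visually 13–15 days later on a 0–100 scale, 100 meaning complete control.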

barnyardgrass [2] = test: Test B flooded paddy test; format: in vivo, Echinochloa crus-galli; details: 1000 g ai/ha, scale 0 to 100 (0 no effect, 100 complete control)
Procedure, shortened: (§2)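 Visual ratings, 0 (no effect) to 100 (complete control), made versus controls after 13–15 d greenhouse. Paddy plants treated at 2-leaf stage; postemergence plants at 1- to 4-leaf stage, 2–18 cm tall.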

morningglory = test: Test B pre-/postemergence herbicide test; format: in vivo, Ipomoea coccinea; details: for Morningglory plant response rating (0 to 100 scale) / Plant response rating, Morningglory: 0 = no effect, 100 = complete control, preemergence; for Morningglory plant response rating: postemergence
Procedure, shortened: (§3)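 Visual rating, 0 (no effect) to 100 (complete control), versus untreated controls after 13–15 d in greenhouse. Pre- and postemergence applications (postemergence plants 2–18 cm, 1–4 leaves); flooded paddy arm at 2-leaf stage. Compounds in non-phytotoxic solvent plus surfactant.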

wheat = test: Test B postemergence herbicide test; format: in vivo, Triticum aestivum; set-up: key to Wheat plant response rating: 0 = no effect, 100 = complete control; details: postemergence
Procedure, shortened: (§4)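 Treated at 2-leaf (paddy) or 1–4-leaf, 2–18 cm (postemergence); greenhouse 13–15 d; visual score vs control, 0 none to 100 complete control; dash = not tested.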

large crabgrass = test: Test B pre-/postemergence herbicide test; format: in vivo, Digitaria sanguinalis; details: for Crabgrass, Large plant response rating: postemergence
Procedure, shortened: as §1

ducksalad = test: Test B flooded paddy test; format: in vivo, Heteranthera limosa; details: 1000 g ai/ha, scale 0 to 100 (0 no effect, 100 complete control)
Procedure, shortened: as §2

corn = test: Test B pre-/postemergence herbicide test; format: in vivo, Zea mays; details: for Corn plant response rating (0 to 100 scale) / Plant response rating, Corn: 0 = no effect, 100 = complete control, preemergence; for Corn plant response rating: postemergence
Procedure, shortened: as §1

barnyardgrass [3] = test: Test B pre-/postemergence herbicide test; format: in vivo, Echinochloa crus-galli; details: for Barnyardgrass plant response rating (0 to 100 scale) / Plant response rating, Barnyardgrass: 0 = no effect, 100 = complete control, preemergence; for Barnyardgrass plant response rating: postemergence
Procedure, shortened: as §3

lambsquarters = test: Test B pre-/postemergence herbicide test; format: in vivo, Chenopodium album; details: for Plant response rating, Lambsquarters: 0 = no effect, 100 = complete control, preemergence; for Lambsquarters plant response rating: postemergence
Procedure, shortened: as §1

cocklebur = test: Test B pre-/postemergence herbicide test; format: in vivo, Xanthium strumarium; details: for Cocklebur plant response rating (0 to 100 scale) / Plant response rating, Cocklebur: 0 = no effect, 100 = complete control, preemergence; for Cocklebur plant response rating: postemergence
Procedure, shortened: as §3

wild oat = test: Test B postemergence herbicide test; format: in vivo, Avena fatua; details: postemergence
Procedure, shortened: as §4

blackgrass = test: Test B postemergence herbicide test; format: in vivo, Alopecurus myosuroides; details: postemergence
Procedure, shortened: as §2

rice [4] = test: Test B flooded paddy test; format: in vivo, Oryza sativa; details: 1000 g ai/ha, scale 0 to 100 (0 no effect, 100 complete control)
Procedure, shortened: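 Formulated test chemicals went onto postemergence plants measuring 2 to 18 cm, at one to four leaves. For the paddy assay, species had reached two leaves. Scoring took place 13–15 days later by eye, relative to untreated plants, using 0 for no effect up to 100 for full control.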

pigweed = test: Test B pre-/postemergence herbicide test; format: in vivo, Amaranthus retroflexus; details: for Pigweed plant response rating (0 to 100 scale) / Plant response rating, Pigweed: 0 = no effect, 100 = complete control, preemergence; for Pigweed plant response rating: postemergence
Procedure, shortened: as §1

[5] = test system: small flower umbrella sedge; test: Test B flooded paddy test; format: in vivo, Cyperus difformis; details: 1000 g ai/ha, scale 0 to 100 (0 no effect, 100 complete control)
Procedure, shortened: as §2

[6] = 125 g ai/ha, visual rating, scale 0 (no effect) to 100 (complete control)
[7] = 500 g ai/ha, scale 0 to 100, 0 is no effect, 100 is complete control
[8] = 500 g ai/ha, visual rating, scale 0 (no effect) to 100 (complete control)

SMILES: CCn1nc(C(C)(C)C)cc1C(=O)Nc1nc(C(=O)OC)ccc1OC [Compound 265]
- Foxtail, Giant plant response rating (0 to 100 scale) (giant foxtail; 125 g ai/ha): 0
- Plant response rating, Foxtail, Giant (giant foxtail; 500 g ai/ha, visual rating): 50
- Foxtail, Giant plant response rating (giant foxtail; [6]): 0
- Foxtail, Giant plant response rating (giant foxtail; [7]): 0
- Velvetleaf plant response rating (0 to 100 scale) (velvetleaf; 125 g ai/ha): 0
- Plant response rating, Velvetleaf (velvetleaf; 500 g ai/ha, visual rating): 10
- Velvetleaf plant response rating (velvetleaf; [6]): 0
- Velvetleaf plant response rating (velvetleaf; [7]): 10
- Surinam Grass plant response rating (0 to 100 scale) (Surinam grass; 125 g ai/ha): 0
- Plant response rating, Surinam Grass (Surinam grass; 500 g ai/ha, visual rating): 40
- Surinam Grass plant response rating (Surinam grass; [6]): 0
- Surinam Grass plant response rating (Surinam grass; [7]): 0
- Rice plant response rating (0 to 100 scale) (rice [1]): 0
- Plant response rating, Rice (rice [1]): 0
- Barnyardgrass plant response rating (barnyardgrass [2]): 0
- Morningglory plant response rating (0 to 100 scale) (morningglory; 125 g ai/ha): 0
- Plant response rating, Morningglory (morningglory; 500 g ai/ha, visual rating): 0
- Morningglory plant response rating (morningglory; [6]): 0
- Morningglory plant response rating (morningglory; [7]): 10
- Wheat plant response rating (wheat; [6]): 0
- Wheat plant response rating (wheat; [7]): 10
- Crabgrass, Large plant response rating (large crabgrass; [6]): 0
- Crabgrass, Large plant response rating (large crabgrass; [7]): 0
- Ducksalad plant response rating (ducksalad): 0
- Corn plant response rating (0 to 100 scale) (corn; 125 g ai/ha): 0
- Plant response rating, Corn (corn; 500 g ai/ha, visual rating): 0
- Corn plant response rating (corn; [6]): 0
- Corn plant response rating (corn; [7]): 10
- Barnyardgrass plant response rating (0 to 100 scale) (barnyardgrass [3]; 125 g ai/ha): 0
- Plant response rating, Barnyardgrass (barnyardgrass [3]; 500 g ai/ha, visual rating): 0
- Barnyardgrass plant response rating (barnyardgrass [3]; [6]): 0
- Barnyardgrass plant response rating (barnyardgrass [3]; [8]): 0
- Plant response rating, Lambsquarters (lambsquarters; 500 g ai/ha, visual rating): 0
- Lambsquarters plant response rating (lambsquarters; [6]): 0
- Lambsquarters plant response rating (lambsquarters; [7]): 0
- Cocklebur plant response rating (0 to 100 scale) (cocklebur; 125 g ai/ha): 0
- Plant response rating, Cocklebur (cocklebur; 500 g ai/ha, visual rating): 0
- Cocklebur plant response rating (cocklebur; [6]): 0
- Cocklebur plant response rating (cocklebur; [8]): 0
- Oat, Wild plant response rating (wild oat; [6]): 0
- Oat, Wild plant response rating (wild oat; [7]): 10
- Blackgrass plant response rating (blackgrass; [6]): 0
- Blackgrass plant response rating (blackgrass; [8]): 10
- Rice plant response rating (rice [4]): 0
- Pigweed plant response rating (0 to 100 scale) (pigweed; 125 g ai/ha): 0
- Plant response rating, Pigweed (pigweed; 500 g ai/ha, visual rating): 0
- Pigweed plant response rating (pigweed; [6]): 0
- Pigweed plant response rating (pigweed; [7]): 20
- Sedge, Umbrella plant response rating [5]: 0

SMILES: CCNC(=O)c1ccc(F)c(NC(=O)c2c(F)c(C(C)(C)C)nn2CC)c1 [Compound 275]
- Foxtail, Giant plant response rating (0 to 100 scale) (giant foxtail; 125 g ai/ha): 0
- Plant response rating, Foxtail, Giant (giant foxtail; 500 g ai/ha, visual rating): 20
- Foxtail, Giant plant response rating (giant foxtail; [6]): 0
- Foxtail, Giant plant response rating (giant foxtail; [7]): 0
- Velvetleaf plant response rating (0 to 100 scale) (velvetleaf; 125 g ai/ha): 0
- Plant response rating, Velvetleaf (velvetleaf; 500 g ai/ha, visual rating): 0
- Velvetleaf plant response rating (velvetleaf; [6]): 0
- Velvetleaf plant response rating (velvetleaf; [7]): 30
- Surinam Grass plant response rating (0 to 100 scale) (Surinam grass; 125 g ai/ha): 0
- Plant response rating, Surinam Grass (Surinam grass; 500 g ai/ha, visual rating): 10
- Surinam Grass plant response rating (Surinam grass; [6]): 10
- Surinam Grass plant response rating (Surinam grass; [7]): 30
- Rice plant response rating (0 to 100 scale) (rice [1]): 0
- Plant response rating, Rice (rice [1]): 60
- Barnyardgrass plant response rating (barnyardgrass [2]): 20
- Morningglory plant response rating (0 to 100 scale) (morningglory; 125 g ai/ha): 0
- Plant response rating, Morningglory (morningglory; 500 g ai/ha, visual rating): 40
- Morningglory plant response rating (morningglory; [6]): 0
- Morningglory plant response rating (morningglory; [7]): 10
- Wheat plant response rating (wheat; [6]): 20
- Wheat plant response rating (wheat; [7]): 30
- Crabgrass, Large plant response rating (0 to 100 scale) (large crabgrass; 125 g ai/ha, 0 = no effect, 100 = complete control, preemergence): 0
- Plant response rating, Crabgrass, Large (large crabgrass; 500 g ai/ha, visual rating, 0 = no effect, 100 = complete control, preemergence): 0
- Crabgrass, Large plant response rating (large crabgrass; [6]): 0
- Crabgrass, Large plant response rating (large crabgrass; [7]): 10
- Ducksalad plant response rating (ducksalad): 60
- Corn plant response rating (0 to 100 scale) (corn; 125 g ai/ha): 0
- Plant response rating, Corn (corn; 500 g ai/ha, visual rating): 20
- Corn plant response rating (corn; [6]): 0
- Corn plant response rating (corn; [7]): 0
- Barnyardgrass plant response rating (0 to 100 scale) (barnyardgrass [3]; 125 g ai/ha): 0
- Plant response rating, Barnyardgrass (barnyardgrass [3]; 500 g ai/ha, visual rating): 60
- Barnyardgrass plant response rating (barnyardgrass [3]; [6]): 0
- Barnyardgrass plant response rating (barnyardgrass [3]; [7]): 20
- Plant response rating, Lambsquarters (lambsquarters; 500 g ai/ha, visual rating): 100
- Lambsquarters plant response rating (lambsquarters; [6]): 50
- Lambsquarters plant response rating (lambsquarters; [7]): 70
- Cocklebur plant response rating (0 to 100 scale) (cocklebur; 125 g ai/ha): 0
- Plant response rating, Cocklebur (cocklebur; 500 g ai/ha, visual rating): 0
- Cocklebur plant response rating (cocklebur; [6]): 0
- Cocklebur plant response rating (cocklebur; [7]): 10
- Oat, Wild plant response rating (wild oat; [6]): 30
- Oat, Wild plant response rating (wild oat; [7]): 40
- Blackgrass plant response rating (blackgrass; [6]): 40
- Blackgrass plant response rating (blackgrass; [7]): 40
- Rice plant response rating (rice [4]): 20
- Pigweed plant response rating (0 to 100 scale) (pigweed; 125 g ai/ha): 0
- Plant response rating, Pigweed (pigweed; 500 g ai/ha, visual rating): 40
- Pigweed plant response rating (pigweed; [6]): 60
- Pigweed plant response rating (pigweed; [7]): 70
- Sedge, Umbrella plant response rating [5]: 80
